# Assay results published in paper PMC11274943, “Discovery of Benzisothiazolone Derivatives as Bifunctional Inhibitors of HIV-1 Reverse Transcriptase DNA Polymerase and Ribonuclease H Activities” (Biomolecules, 2024).
# Columns and labels:
# [1] = test system: Y181C HIV-1 RT DNA-dependent DNA polymerase activity; assay: biochemical; assay type: biochemical; settings: Y181C RT; fold resistance IC50 mutant/IC50 WT
# Procedure: (§1) WT (wild-type) RT, and RTs harboring the NNRTI-resistant mutations K101E, K103N, Y181C, Y188C, G190A and P236L, were overexpressed and purified to homogeneity as described previously. The RT concentration was determined spectrophotometrically at 280 nm using an absorbance coefficient of 260,450 M^−1·cm^−1. The 7-hydroxy tropolone derivative 19,616 (2,7-dihydroxy 2,4,6-cyclo-heptatrien-1-one) was purchased from Molecular Diversity Preservation International (Basel, Switzerland). […] The benzisothiazolone derivatives were procured from MolPort (New York, NY, USA) or Enamine (Kyiv, Ukraine). The DNA and RNA oligonucleotides were synthesized and purified by Integrated DNA Technologies (Coralville, IA, USA). All other reagents were of the highest quality available and were used without further purification.
# (§2) DDDP assays were also performed using a QuantiFluor ONE based spectrophotometric assay to detect double-stranded DNA synthesized by recombinant HIV-1 RT [14]. The reaction contained 40 nM of a template/primer comprising a 200 nt DNA template (5′-[…] […]-[…]-[…] […] […]-3′) annealed to an 18-nucleotide DNA primer (5′-[…]-3′), and a mix of 50 mM Tris-HCl pH 7.8, 50 mM NaCl, 10 mM MgCl2 and 50 µM dNTP. The reactions were stopped after 45 min by adding the detection reagent containing 1 × Quant-Fluor One (Promega) and 12.5 mM ethylenediaminetet-raacetic acid; the samples were transferred to a 96-well black plate, and fluorescence was measured at excitation/emission (490/535 nm).
# [2] = molecular target: T1, G190A HIV-1 RT DNA-dependent DNA polymerase activity (Human immunodeficiency virus type 1 group M subtype B, UniProt P04585, G777A); assay: biochemical; assay type: biochemical
# T1 construct: made in house
# Procedure: as §1, §2
# [3] = molecular target: T2, K101E HIV-1 RT DNA-dependent DNA polymerase activity (Human immunodeficiency virus type 1 group M subtype B, UniProt P04585, K688E); assay: biochemical; assay type: biochemical
# T2 construct: made in house
# Procedure: as §1, §2
# [4] = molecular target: T3, WT HIV-1 RT DNA-dependent DNA polymerase activity (Human immunodeficiency virus type 1 group M subtype B, UniProt P04585); assay: biochemical; assay type: biochemical
# T3 construct: made in house
# Procedure: as §1, §2
# [5] = test system: K101E HIV-1 RT DNA-dependent DNA polymerase activity; assay: biochemical; assay type: biochemical; settings: K101E RT; fold resistance IC50 mutant/IC50 WT
# Procedure: as §1, §2
# [6] = molecular target: T4, Y181C HIV-1 RT DNA-dependent DNA polymerase activity (Human immunodeficiency virus type 1 group M subtype B, UniProt P04585, Y768C); assay: biochemical; assay type: biochemical
# T4 construct: made in house
# Procedure: as §1, §2
# [7] = molecular target: T5, K103N HIV-1 RT DNA-dependent DNA polymerase activity (Human immunodeficiency virus type 1 group M subtype B, UniProt P04585, K690N); assay: biochemical; assay type: biochemical
# T5 construct: made in house
# Procedure: as §1, §2
# [8] = test system: P236L HIV-1 RT DNA-dependent DNA polymerase activity; assay: biochemical; assay type: biochemical; settings: P236L RT; fold resistance IC50 mutant/IC50 WT
# Procedure: as §1, §2
# [9] = test system: K103N HIV-1 RT DNA-dependent DNA polymerase activity; assay: biochemical; assay type: biochemical; settings: K103N RT; fold resistance IC50 mutant/IC50 WT
# Procedure: as §1, §2
# [10] = test system: Y188C HIV-1 RT DNA-dependent DNA polymerase activity; assay: biochemical; assay type: biochemical; settings: Y188C RT; fold resistance IC50 mutant/IC50 WT
# Procedure: as §1, §2
# [11] = molecular target: T6, P236L HIV-1 RT DNA-dependent DNA polymerase activity (Human immunodeficiency virus type 1 group M subtype B, UniProt P04585, P823L); assay: biochemical; assay type: biochemical
# T6 construct: made in house
# Procedure: as §1, §2
# [12] = molecular target: T7, Y188C HIV-1 RT DNA-dependent DNA polymerase activity (Human immunodeficiency virus type 1 group M subtype B, UniProt P04585, Y775C); assay: biochemical; assay type: biochemical
# T7 construct: made in house
# Procedure: as §1, §2
# [13] = Cytotoxicity in TZM-bl cells; assay type: cell-based; settings: human, TZM-bl cell death
# Procedure: (§3) Next, we re-purchased 10 hit compounds with IC50 values < 1.0 µM for the inhibition of RT RNase H activity that were commercially available in sufficient quantities for further analysis. We assessed their antiviral activity and cytotoxicity in TZM-bl cells, as described previously.
# [14] = test system: HIV-1; assay: Antiviral activity (HIV-1 replication) in TZM-bl cells; assay type: cell-based; settings: Human immunodeficiency virus 1, mean ± SD
# Procedure: The genes for Y181C, Y181I, Y181V and Y181F were cloned into HIV-1LAI. NNRTI susceptibility was determined in TZM-bl cells, as described previously.
# as §3
# [15] = test system: K101E HIV-1 RT RNase H activity; assay: FRET-based RT RNase H cleavage assay, K101E RT; assay type: biochemical; settings: K101E RT; fold resistance IC50 mutant/IC50 WT
# Procedure: (§4) WT (wild-type) RT, and RTs harboring the NNRTI-resistant mutations K101E, K103N, Y181C, Y188C, G190A and P236L, were overexpressed and purified to homogeneity as described previously. The RT concentration was determined spectrophotometrically at 280 nm using an absorbance coefficient of 260,450 M^−1·cm^−1. The 7-hydroxy tropolone derivative 19,616 (2,7-dihydroxy 2,4,6-cyclo-heptatrien-1-one) was purchased from Molecular Diversity Preservation International (Basel, Switzerland). Nevirapine was purchased from Selleckchem (Houston, TX, USA). The benzisothiazolone derivatives were procured from MolPort (New York, NY, USA) or Enamine (Kyiv, Ukraine). The DNA and RNA oligonucleotides were synthesized and purified by Integrated DNA Technologies (Coralville, IA, USA). All other reagents were of the highest quality available and were used without further purification.
# (§5) The following RNA/DNA T/P substrate was used in the present study: an 18-nucleotide RNA template (RNA-18T: 5′-[…]-3′) was annealed to an 18-nucleotide primer (DNA-18T: 5′-[…]-3′), as described previously. Fluorescein and IowaBlack FQTM were covalently attached to the 3′- and 5′-ter-mini of the RNA and DNA oligonucleotides, respectively.
# (§6) The FRET-based RNase H cleavage assays were carried out as described previously. Fluorescence was measured with a SpectraMax M2 microplate spectrofluorometer (Molecular Devices, San Jose, CA, USA) using an excitation wavelength of 490 nm and an emission wavelength of 528 nm. Data were analyzed using SoftMax Pro software, version 4.7.1 (Molecular Devices, San Jose, CA, USA).
# [16] = molecular target: T8, K101E HIV-1 RT RNase H activity (Human immunodeficiency virus type 1 group M subtype B, UniProt P04585, K688E); assay: FRET-based RT RNase H cleavage assay, K101E RT; assay type: biochemical
# T8 construct: made in house
# Procedure: as §4, §5, §6
SMILES,Inhibition of RT DNA polymerase activity Fold-R [1],IC50 [2] [nM],IC50 [3] [nM],IC50 [4] [nM],Inhibition of RT DNA polymerase activity Fold-R [5],IC50 [6] [nM],IC50 [7] [nM],Inhibition of RT DNA polymerase activity Fold-R [8],Inhibition of RT DNA polymerase activity Fold-R [9],Inhibition of RT DNA polymerase activity Fold-R [10],IC50 [11] [nM],IC50 [12] [nM],CC50 [13] [nM],EC50 [14] [nM],Inhibition of RT RNase H Activity Fold-R [15],IC50 [16] [nM]
"CCOC(=O)Cc1csc(-n2sc3ccccc3c2=O)n1 [Compound 2, ethyl 2-(2-(3-oxobenzo[d]isothiazol-2(3H)-yl)thiazol-4-yl)acetate]",0.3,1930 ± 490,4880 ± 1560,2640 ± 1850,1.8,710 ± 100,3280 ± 1530,1.9,1.2,0.2,5130 ± 1680,530 ± 80,≥ 100000,2680 ± 540,2.2,280 ± 20
"Cc1ccc(-n2sc3ccccc3c2=O)cc1S(=O)(=O)N1CCCCC1 [Compound 1, 2-(4-methyl-3-(piperidin-1-ylsulfonyl)phenyl)benzo[d]isothiazol-3(2H)-one]",0.1,1600 ± 880,7330 ± 7050,5970 ± 3100,1.2,610 ± 60,3660 ± 1840,0.4,0.6,0.02,2220 ± 180,140 ± 10,≥ 100000,1680 ± 940,1.6,250 ± 60
"CCN(CC)S(=O)(=O)c1cccc(-n2sc3ccccc3c2=O)c1 [Compound 4, N,N-diethyl-3-(3-oxobenzo[d]isothiazol-2(3H)-yl)benzenesulfonamide]",0.45,1700 ± 1000,1800 ± 700,1100 ± 300,1.6,500 ± 200,2100 ± 700,1.5,1.9,0.3,1600 ± 900,300 ± 100,≥ 100000,3270 ± 490,0.3,90 ± 30
